What was measured:
Settings in all cases: 72 h
Caco-2 [1] = assay: cell viability relative to DMSO; higher = less toxic
Calu-3 [2] = assay: as above
HepG2 [3] = assay: as above
U2OS [4] = assay: as above
Caco-2 [5] = assay: relative viability EC50 (midpoint between 100% and the lowest measured viability); higher = less toxic
Calu-3 [6] = assay: as above
HepG2 [7] = assay: as above
U2OS [8] = assay: as above
Caco-2 [9] = assay: drug sensitivity score (DSS) for viability; higher = more toxic; extreme values may be limits of the assay
Calu-3 [10] = assay: as above
HepG2 [11] = assay: as above
U2OS [12] = assay: as above
Vero E6 [13] = assay: cell viability relative to DMSO; higher = less toxic
Vero E6 [14] = assay: relative viability EC50 (midpoint between 100% and the lowest measured viability); higher = less toxic
Vero E6 [15] = assay: drug sensitivity score (DSS) for viability; higher = more toxic; extreme values may be limits of the assay

Row | SMILES | cell viability (Caco-2 [1]; 1 nM) | cell viability (Caco-2 [1]; 10 nM) | cell viability (Caco-2 [1]; 100 nM) | cell viability (Caco-2 [1]; 1000 nM) | cell viability (Caco-2 [1]; 10000 nM) | cell viability (Calu-3 [2]; 1 nM) | cell viability (Calu-3 [2]; 10 nM) | cell viability (Calu-3 [2]; 100 nM) | cell viability (Calu-3 [2]; 1000 nM) | cell viability (Calu-3 [2]; 10000 nM) | cell viability (HepG2 [3]; 1 nM) | cell viability (HepG2 [3]; 10 nM) | cell viability (HepG2 [3]; 100 nM) | cell viability (HepG2 [3]; 1000 nM) | cell viability (HepG2 [3]; 10000 nM) | cell viability (U2OS [4]; 1 nM) | cell viability (U2OS [4]; 10 nM) | cell viability (U2OS [4]; 100 nM) | cell viability (U2OS [4]; 1000 nM) | cell viability (U2OS [4]; 10000 nM) | relative viability EC50 (Caco-2 [5]) | relative viability EC50 (Calu-3 [6]) | relative viability EC50 (HepG2 [7]) | relative viability EC50 (U2OS [8]) | drug sensitivity score (Caco-2 [9]) | drug sensitivity score (Calu-3 [10]) | drug sensitivity score (HepG2 [11]) | drug sensitivity score (U2OS [12]) | cell viability (Vero E6 [13]; 1 nM) | cell viability (Vero E6 [13]; 10 nM) | cell viability (Vero E6 [13]; 100 nM) | cell viability (Vero E6 [13]; 1000 nM) | cell viability (Vero E6 [13]; 10000 nM) | relative viability EC50 (Vero E6 [14]) | drug sensitivity score (Vero E6 [15])
1 | Nc1nc(N)nc(-c2cc(Cl)ccc2Cl)n1 [irsogladine] | 101% | 99% | 101% | 102% | 108% | 112% | 93.7% | 91.5% | 110% | 99.1% | 89.4% | 93.9% | 94.6% | 93.5% | 105% | 105% | 97.3% | 101% | 100% | 99.2% | > 10 µM | > 10 µM | > 10 µM | > 10 µM | 0 | 0 | 0 | 0 |  |  |  |  |  |  | 
2 | CC(C)(C)c1cc(C(C)(C)C)c(NC(=O)c2c[nH]c3ccccc3c2=O)cc1O [ivacaftor] | 104% | 98.8% | 99.6% | 101% | 81.6% | 97.2% | 103% | 93.3% | 91.1% | 84.1% | 105% | 105% | 100% | 100% | 98.3% | 100% | 103% | 95.3% | 103% | 86.8% | > 10 µM | > 10 µM | > 10 µM | > 10 µM | 0.4 | 0.7 | 0 | 0.1 |  |  |  |  |  |  | 
3 | CCC[C@@H]1C[C@@H](C(=O)N[C@@H]([C@H]2O[C@H](SC)[C@H](O)[C@@H](O)[C@H]2O)[C@@H](C)O)N(C)C1 [lincomycin] | 111% | 94.2% | 107% | 97.2% | 111% | 99.5% | 92.6% | 99.1% | 98.7% | 103% |  |  |  |  |  |  |  |  |  |  | > 10 µM | > 10 µM |  |  | 0 | 0 |  |  | 97.6% | 103% | 94.9% | 89.6% | 101% | > 10 µM | 0
4 | CCC[C@H](N[C@@H](C)C(=O)N1[C@H](C(=O)O)C[C@@H]2CCCC[C@@H]21)C(=O)OCC [perindopril] | 107% | 99.9% | 94.4% | 101% | 99.5% | 97% | 86.8% | 93.1% | 90.1% | 102% | 99.1% | 105% | 95.8% | 97.2% | 92.4% |  |  |  |  |  | > 10 µM | > 10 µM | > 10 µM |  | 0 | 0 | 0 |  | 99.4% | 105% | 98.1% | 97.3% | 98.8% | > 10 µM | 0
5 | O=S(=O)(F)Cc1ccccc1 [phenylmethylsulfonyl-fluoride] | 102% | 95.6% | 103% | 99.7% | 99.2% | 105% | 101% | 103% | 98.6% | 102% | 109% | 114% | 97.8% | 111% | 96.7% | 106% | 99.8% | 104% | 102% | 101% | > 10 µM | > 10 µM | > 10 µM | > 10 µM | 0 | 0 | 0 | 0 |  |  |  |  |  |  | 
6 | O=C1CNC(=O)CN1 [piperazinedione] | 98.3% | 102% | 98.9% | 99.4% | 94.8% | 91.8% | 99.4% | 91.8% | 93.4% | 94% | 102% | 94.9% | 96.4% | 100% | 103% | 99% | 99% | 97.4% | 101% | 99.8% | > 10 µM | > 10 µM | > 10 µM | > 10 µM | 0 | 0 | 0 | 0 | 99.5% | 96.4% | 102% | 91.4% | 74.7% |  | 2.1
7 | Cc1ccc(=O)n(-c2ccccc2)c1 [pirfenidone] | 99.3% | 93.6% | 102% | 99.7% | 100% | 103% | 95.3% | 107% | 103% | 109% | 91.7% | 100% | 106% | 98.8% | 104% |  |  |  |  |  | > 10 µM | > 10 µM | > 10 µM |  | 0 | 0 | 0 |  | 107% | 104% | 105% | 103% | 100% | > 10 µM | 0
8 | O=[N+]([O-])c1cn2c(n1)OC[C@@H](OCc1ccc(OC(F)(F)F)cc1)C2 [pretomanid] | 98.3% | 100% | 102% | 99.3% | 92.6% | 101% | 96.5% | 96.4% | 112% | 103% | 106% | 103% | 102% | 96.3% | 100% |  |  |  |  |  | > 10 µM | > 10 µM | > 10 µM |  | 0 | 0 | 0 |  | 111% | 97.6% | 103% | 95.8% | 102% | > 10 µM | 0
9 | C=CC1=C(C)c2cc3[nH]c(cc4nc(cc5[nH]c(cc1n2)c(C)c5CCC(=O)O)C(CCC(=O)O)=C4C)c(C)c3C=C [protoporphyrin-IX] | 101% | 102% | 92.7% | 94.4% | 76.4% | 97.4% | 93.8% | 105% | 97.5% | 84.1% | 102% | 91.1% | 105% | 94.2% | 84.6% | 101% | 101% | 98.2% | 101% | 88.6% | > 10 µM | > 10 µM | > 10 µM | > 10 µM | 1.4 | 0.6 | 0.8 | 0 | 99.8% | 71.4% | 110% | 75.2% | 78.6% |  | 2.6
10 | O=C(O)c1ccccc1O [salicylic-acid] | 103% | 97% | 105% | 94.7% | 96.6% | 105% | 91.8% | 90.6% | 88.9% | 105% | 95.4% | 96.1% | 99.3% | 97% | 108% | 99.8% | 99.6% | 98.5% | 96.5% | 102% | > 10 µM | > 10 µM | > 10 µM | > 10 µM | 0 | 0 | 0 | 0 |  |  |  |  |  |  | 
11 | C[C@@]1(C(=O)O)NCCc2cc(O)c(O)cc21 [salsolinol-1-carboxylic-acid] | 103% | 101% | 97.4% | 109% | 106% | 98.9% | 105% | 103% | 106% | 107% | 100% | 106% | 95% | 94.3% | 107% |  |  |  |  |  | > 10 µM | > 10 µM | > 10 µM |  | 0 | 0 | 0 |  | 100% | 95.2% | 94.8% | 92.2% | 104% | > 10 µM | 0
12 | Cc1coc2c1C(=O)C(=O)c1c-2ccc2c1CCCC2(C)C [tanshinone-IIA] | 97.6% | 95.7% | 92.9% | 103% | 77% | 109% | 105% | 101% | 94.1% | 101% | 90.6% | 105% | 96.5% | 91.4% | 55.4% | 102% | 99.2% | 95.7% | 99.6% | 74.9% | > 10 µM | > 10 µM |  |  | 0.7 | 0 | 3.7 | 1 | 106% | 104% | 103% | 101% | 97.4% | > 10 µM | 0
13 | Cc1ccc(NC2=NCCN2)c(Cl)c1 [tolonidine] | 90.3% | 101% | 93.9% | 99% | 99.5% | 101% | 112% | 96.5% | 106% | 99.3% | 116% | 109% | 109% | 99% | 111% | 101% | 106% | 97.3% | 102% | 96.3% | > 10 µM | > 10 µM | > 10 µM | > 10 µM | 0 | 0 | 0 | 0 |  |  |  |  |  |  | 
14 | NC[C@H]1CC[C@H](C(=O)O)CC1 [tranexamic-acid] | 106% | 105% | 104% | 98.3% | 96.4% | 101% | 95.5% | 87.8% | 94.7% | 90.9% |  |  |  |  |  |  |  |  |  |  | > 10 µM | > 10 µM |  |  | 0 | 0 |  |  | 98.1% | 101% | 105% | 94.4% | 103% | > 10 µM | 0
15 | C[C@]12CC[C@H]3[C@@H](CC[C@@]45O[C@@H]4C(O)=C(C#N)C[C@]35C)[C@@H]1CC[C@@H]2O [trilostane] | 105% | 92.9% | 99.9% | 97.6% | 99.3% |  |  |  |  |  |  |  |  |  |  | 98.8% | 103% | 105% | 105% | 97.9% | > 10 µM |  |  | > 10 µM | 0 |  |  | 0 | 91.3% | 98.5% | 92.8% | 92.4% | 102% | > 10 µM | 0
16 | FC(F)(F)c1cccc(C2=CCN(CCc3ccc4ccccc4c3)CC2)c1 [xaliproden] | 106% | 88.6% | 89% | 104% | 107% | 109% | 105% | 95.5% | 109% | 95.9% |  |  |  |  |  | 98.4% | 96.3% | 99.5% | 105% | 111% | > 10 µM | > 10 µM |  | > 10 µM | 0 | 0 |  | 0 | 100% | 89.7% | 92.7% | 92.7% | 104% | > 10 µM | 0
